Laboratory results published in paper PMC4915350 (Journal of Medicinal Chemistry, 2016).

How the values were obtained:
D3R [1] = settings: read-out: Ki at D3R, previously reported; using [3H]spiperone; cited from earlier work
D3R [2] = settings: concentrations up to 1 μM, data not shown; ref 22 (McCall et al. 2005); cited from earlier work
hD2R = hD2R (Homo sapiens, UniProt P14416); assay: biochemical; format: binding
hD3R = hD3R (Homo sapiens, UniProt P35462); assay: biochemical; format: binding
Sequence of hD3R (P35462 whole entry): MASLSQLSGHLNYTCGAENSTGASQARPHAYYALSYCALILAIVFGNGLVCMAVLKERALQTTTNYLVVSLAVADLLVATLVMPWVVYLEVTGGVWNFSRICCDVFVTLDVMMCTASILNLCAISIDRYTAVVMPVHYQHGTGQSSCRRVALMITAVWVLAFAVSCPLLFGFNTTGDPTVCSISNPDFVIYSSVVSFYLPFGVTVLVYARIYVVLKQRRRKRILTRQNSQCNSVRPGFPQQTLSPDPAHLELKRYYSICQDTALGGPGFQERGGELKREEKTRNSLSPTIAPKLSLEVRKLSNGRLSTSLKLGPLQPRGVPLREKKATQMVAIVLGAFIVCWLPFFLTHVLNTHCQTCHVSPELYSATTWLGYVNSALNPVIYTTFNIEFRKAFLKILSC

Sequence of hD2R (P14416 whole entry): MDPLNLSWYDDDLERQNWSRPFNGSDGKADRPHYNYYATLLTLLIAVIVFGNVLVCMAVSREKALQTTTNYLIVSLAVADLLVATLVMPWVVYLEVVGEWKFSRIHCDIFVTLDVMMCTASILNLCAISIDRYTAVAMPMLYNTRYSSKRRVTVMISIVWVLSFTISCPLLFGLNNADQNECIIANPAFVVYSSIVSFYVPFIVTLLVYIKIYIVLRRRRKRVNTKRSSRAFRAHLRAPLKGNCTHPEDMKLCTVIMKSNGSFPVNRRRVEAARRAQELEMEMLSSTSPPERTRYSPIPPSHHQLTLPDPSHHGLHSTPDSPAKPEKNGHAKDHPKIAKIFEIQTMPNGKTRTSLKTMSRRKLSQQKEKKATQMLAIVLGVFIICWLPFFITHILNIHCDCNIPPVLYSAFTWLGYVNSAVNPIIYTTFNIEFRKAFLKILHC

CN[C@@H]1Cc2cccc3[nH]c(=O)n(c23)C1 [Compound 1, (R)-5,6-dihydro-5-(methylamino)-4H-imidazo[4,5,1-ij]quinolin-2(1H)-one (Z)-2-butenedioate]
Ki (D3R [1]): 1940 nM | activity in D3R-mediated mitogenesis assay, previously reported (D3R [2]): no activity was observed

N[C@@H]1Cc2cccc3[nH]c(=O)n(c23)C1 [Compound 12a, (R)-5-Amino-5,6-dihydro-4H-imidazo[4,5,1-ij]quinolin-2(1H)-one]
fold reduction of D2R affinity relative to 1 (hD2R): ~6 fold | fold reduction of D3R affinity relative to 1 (hD3R; [3H]7-OH-DPAT as tracer): ~6 fold

CCCN(CCC)[C@@H]1Cc2cccc3nc(O)n(c23)C1 [Compound 14a, (R)-5-(Dipropylamino)-5,6-dihydro-4H-imidazo[4,5,1-ij]quinolin-2(1H)-one]
fold decrease of D2R affinity relative to 13 (hD2R): ~4 fold

CCCN(C)[C@@H]1Cc2cccc3[nH]c(=O)n(c23)C1 [Compound 14c, (R)-5-[Methyl(propyl)amino]-5,6-dihydro-4H-imidazo[4,5,1-ij]quinolin-2(1H)-one]
D2R selectivity over D3R (D3R/D2R) (hD2R): ~8 fold

CCCN(CCC)[C@@H]1Cc2cccc3c2n(c(=O)n3CCC)C1 [Compound 15, (R)-5-(Dipropylamino)-1-propyl-5,6-dihydro-4H-imidazo[4,5,1-ij]quinolin-2(1H)-one]
Ki (hD2R): ~3 nM | Ki (hD3R): ~3 nM
